Some test systems named below: OVCAR-3 ovarian; MDA-MB-231 breast; OVCAR-4 ovarian; OVCAR-5 ovarian; U251 CNS; RXF 393 renal; LOX IMVI melanoma; HCC-2998 colon; HL-60(TB) leukemia; SR leukemia.
Common to all, as to assay: NCI tumour cell line growth inhibition, 48 h

This passage reports TGI and GI50 results from PubChem BioAssay (NCI).

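All cell lines were grown in 96-well plates and treated with compound for 48 hours. GI50 marks 50% less growth. TGI: concentration producing complete growth inhibition.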

Regarding `Cc1[nH]nc(C(=O)N/N=C/c2cccs2)c1N=NN(C)C`, the TGI in the assay on OVCAR-3 ovarian was above 100 µM; in the assay with MDA-MB-231 breast it was 66.6 µM; in the assay on OVCAR-4 ovarian, 31 µM; in the assay on OVCAR-5 ovarian, above 100 µM; with U251 CNS it was 32.1 µM; in the assay on RXF 393 renal it was 36 µM. In addition, the TGI came out at 34.7 µM in the assay with LOX IMVI melanoma, 26.6 µM with HCC-2998 colon and 89.4 µM with HL-60(TB) leukemia.
In the case of `COc1cc([N+](=O)[O-])c2ncccc2c1O`, the GI50 is 4.76 µM with OVCAR-3 ovarian; 26.1 µM with MDA-MB-231 breast; 26.6 µM in the assay on OVCAR-4 ovarian; 5.09 µM in the assay on OVCAR-5 ovarian; 20.6 µM in the assay with SR leukemia; 3.2 µM in the assay with U251 CNS. In addition, the GI50 in the assay on RXF 393 renal was 10600 nM; with LOX IMVI melanoma, 3.88 µM; in the assay on HL-60(TB) leukemia, 43.3 µM. Further, the TGI in the assay with OVCAR-3 ovarian was 37.3 µM; in the assay with MDA-MB-231 breast, above 100 µM; with OVCAR-4 ovarian, above 100 µM; with OVCAR-5 ovarian it was above 100 µM; with SR leukemia, above 100 µM; in the assay on U251 CNS, above 100 µM. Besides, the TGI with RXF 393 renal was 30.1 µM; in the assay with LOX IMVI melanoma, 33.6 µM; with HL-60(TB) leukemia, above 100 µM.
Turning to `NC(=O)c1ccc(NC(=O)c2oc3ccccc3c2-c2cnn(-c3ccccc3)c2)cc1`, the GI50 in the assay on MDA-MB-231 breast was 4.65 µM; in the assay on OVCAR-5 ovarian, above 100 µM; in the assay with SR leukemia, above 100 µM; in the assay with U251 CNS, 5.42 µM; in the assay on RXF 393 renal it was 1330 nM; in the assay on LOX IMVI melanoma it was above 100 µM. For the same molecule, the GI50 with HCC-2998 colon and in the assay with HL-60(TB) leukemia was above 100 µM each time. Also, the TGI in the assay on MDA-MB-231 breast is above 100 µM; with OVCAR-5 ovarian, above 100 µM; in the assay on SR leukemia, above 100 µM; in the assay on U251 CNS, above 100 µM; in the assay on RXF 393 renal it was 6.03 µM; in the assay on LOX IMVI melanoma it was above 100 µM. Besides, the TGI in the assay on HCC-2998 colon and in the assay on HL-60(TB) leukemia was above 100 µM each time.
Turning to `CN(NC(=O)/C(=C/C=C/c1ccccc1)NC(=O)c1ccccc1)C1=C(Cl)C(=O)[N+](c2ccccc2)=CC1`, the TGI with OVCAR-3 ovarian was 44.9 µM; in the assay with MDA-MB-231 breast, 37.5 µM; in the assay on OVCAR-4 ovarian, 64 µM; with OVCAR-5 ovarian, above 100 µM; in the assay with SR leukemia, 66.6 µM; in the assay on U251 CNS, 40.2 µM. The results for the TGI with RXF 393 renal and in the assay with LOX IMVI melanoma were 53.8 µM and 32.3 µM, respectively.
`CCn1c(-c2cc3ccccc3cc2OC(=O)c2ccccc2)n[nH]c1=S`: the GI50 is 3.19 µM in the assay on OVCAR-3 ovarian; 25.2 µM in the assay with MDA-MB-231 breast; above 50 µM in the assay with OVCAR-4 ovarian; above 50 µM with OVCAR-5 ovarian; 19.8 µM in the assay with SR leukemia; above 50 µM with U251 CNS. In addition, the GI50 in the assay on RXF 393 renal is above 50000 nM; in the assay with LOX IMVI melanoma, 26.6 µM; in the assay on HL-60(TB) leukemia it was 32.7 µM. Further, the TGI in the assay on OVCAR-3 ovarian, in the assay with MDA-MB-231 breast, in the assay on OVCAR-4 ovarian, in the assay with OVCAR-5 ovarian, in the assay on SR leukemia and in the assay with U251 CNS was above 50 µM throughout. The TGI with RXF 393 renal, in the assay with LOX IMVI melanoma and in the assay on HL-60(TB) leukemia was above 50 µM each time.
Consider `O=C1CCC(c2ccccc2)(c2ccccc2)CC1`, for which the TGI with OVCAR-3 ovarian, in the assay with MDA-MB-231 breast, in the assay with OVCAR-4 ovarian, with OVCAR-5 ovarian, in the assay on SR leukemia and with U251 CNS was above 100 µM in each case. The TGI in the assay on RXF 393 renal is above 100 µM; in the assay with LOX IMVI melanoma, above 100 µM; in the assay with HL-60(TB) leukemia, 81 µM.
Take `COc1cc(SC)ccc1C(=O)N1CCCC(C)C1` (configuration not stated): the GI50 with OVCAR-3 ovarian is above 100 µM; in the assay with MDA-MB-231 breast it was above 100 µM; in the assay with OVCAR-4 ovarian it was 58.6 µM; with OVCAR-5 ovarian it was above 100 µM; with SR leukemia, above 100 µM; in the assay on U251 CNS it was above 100 µM. The GI50 with LOX IMVI melanoma is above 100 µM; in the assay on HCC-2998 colon it was above 100 µM; with HL-60(TB) leukemia it was 75.2 µM. The TGI in the assay with OVCAR-3 ovarian, with MDA-MB-231 breast, in the assay on OVCAR-4 ovarian, with OVCAR-5 ovarian, in the assay on SR leukemia and in the assay with U251 CNS was above 100 µM each time. Moreover, the TGI in the assay on LOX IMVI melanoma, with HCC-2998 colon and in the assay with HL-60(TB) leukemia was above 100 µM throughout.
For `COCCOC(=O)CCn1cc(F)c(=O)[nH]c1=O`, the GI50 was 5.79 µg/mL in the assay on OVCAR-3 ovarian; above 150 µg/mL in the assay with MDA-MB-231 breast; 20.4 µg/mL in the assay with OVCAR-4 ovarian; 122 µg/mL in the assay with OVCAR-5 ovarian; 2.97 µg/mL in the assay with SR leukemia; 51 µg/mL in the assay on U251 CNS. Besides, the GI50 with RXF 393 renal is 13.8 µg/mL; in the assay with LOX IMVI melanoma, 10.4 µg/mL; with HL-60(TB) leukemia, 13.6 µg/mL. Further, the TGI in the assay with OVCAR-3 ovarian, in the assay on MDA-MB-231 breast, with OVCAR-4 ovarian, with OVCAR-5 ovarian, with SR leukemia and in the assay on U251 CNS was above 150 µg/mL throughout. Besides, the TGI in the assay with RXF 393 renal, in the assay on LOX IMVI melanoma and in the assay on HL-60(TB) leukemia was above 150 µg/mL each time.
`COc1cc(Nc2ncc(-c3ccccc3)o2)cc(OC)c1OC`: the GI50 in the assay with OVCAR-3 ovarian was 3.94 µM; in the assay with MDA-MB-231 breast, 2.5 µM; in the assay with OVCAR-4 ovarian, 1.05 µM; with OVCAR-5 ovarian, 3.88 µM; with U251 CNS, 4.35 µM; in the assay on RXF 393 renal, 770 nM. Besides, the results for the GI50 with LOX IMVI melanoma, in the assay on HCC-2998 colon and in the assay with HL-60(TB) leukemia were 2.14 µM, 5.08 µM and 0.858 µM, respectively. The TGI in the assay on OVCAR-3 ovarian was 24.9 µM; with MDA-MB-231 breast it was above 25 µM; with OVCAR-4 ovarian, above 25 µM; with OVCAR-5 ovarian it was above 25 µM; in the assay with U251 CNS, above 25 µM; with RXF 393 renal it was 17.4 µM. Further, the TGI with LOX IMVI melanoma was above 25 µM; with HCC-2998 colon it was above 25 µM; in the assay with HL-60(TB) leukemia, above 9.44 µM.
